In ChEMBL document CHEMBL4261651, “Probing the ligand preferences of the three types of bacterial pantothenate kinase” (Bioorg Med Chem, 2018):
Calls of active or inactive are those of the source. The calls are words filed in the database; no cut-off is given here.

What was measured:
[1] = tested on: Enterococcus faecium; assay: Growth inhibition of Enterococcus faecium ATCC 19434 after 16 hrs by broth microdilution method; assay type: functional, organism-based
[2] = target: T1, Type II pantothenate kinase (Staphylococcus aureus (strain MSSA476)) (UniProt Q6G7I0); assay: Inhibition of N-terminal His6-tagged Staphylococcus aureus PanK2 expressed in Escherichia coli BL21(DE3) cells at 200 uM using pantothenate as substrate in presence of ATP by pyruvate kinase/lactate dehydrogenase enzyme coupled assay
T1 sequence (whole entry): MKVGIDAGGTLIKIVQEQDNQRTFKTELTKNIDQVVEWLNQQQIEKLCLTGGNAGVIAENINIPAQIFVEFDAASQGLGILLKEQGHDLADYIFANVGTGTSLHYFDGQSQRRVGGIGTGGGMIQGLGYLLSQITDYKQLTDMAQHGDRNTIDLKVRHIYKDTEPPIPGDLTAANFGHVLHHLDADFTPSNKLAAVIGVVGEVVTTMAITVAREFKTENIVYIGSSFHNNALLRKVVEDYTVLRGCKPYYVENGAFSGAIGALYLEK

[3] = tested on: Escherichia coli; assay: Growth inhibition of Escherichia coli ATCC 25922 after 16 hrs by broth microdilution method; assay type: functional, organism-based
[4] = tested on: Pseudomonas aeruginosa; assay: Growth inhibition of Pseudomonas aeruginosa ATCC 27853 after 16 hrs by broth microdilution method; assay type: functional, organism-based
[5] = target: T2, Type III pantothenate kinase (Pseudomonas aeruginosa (strain ATCC 15692 / DSM 22644 / CIP 104116 /JCM 14847 / LMG 12228 / 1C / PRS 101 / PAO1)) (UniProt Q9HWC1); assay: Inhibition of Pseudomonas aeruginosa PanK3 expressed in Escherichia coli BL21 Rosetta(DE3) cells at >= 100 uM using pantothenate as substrate in presence of ATP by pyruvate kinase/lactate dehydrogenase enzyme coupled assay
T2 sequence (whole entry): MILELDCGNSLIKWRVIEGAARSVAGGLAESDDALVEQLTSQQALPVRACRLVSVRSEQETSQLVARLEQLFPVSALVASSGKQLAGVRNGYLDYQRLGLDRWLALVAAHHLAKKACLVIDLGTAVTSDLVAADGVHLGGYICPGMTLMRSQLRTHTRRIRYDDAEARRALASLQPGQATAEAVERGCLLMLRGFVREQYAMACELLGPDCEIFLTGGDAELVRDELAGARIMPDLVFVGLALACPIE

[6] = tested on: Escherichia coli; assay: Substrate activity at N-terminal His6-tagged Escherichia coli PanK1 expressed in Escherichia coli BL21(DE3) cells assessed as Kcat in presence of ATP/NADH by pyruvate kinase/lactate dehydrogenase enzyme coupled assay
[7] = target: T1, Type II pantothenate kinase (Staphylococcus aureus (strain MSSA476)); assay: Inhibition of N-terminal His6-tagged Staphylococcus aureus PanK2 expressed in Escherichia coli BL21(DE3) cells at >= 100 uM using pantothenate as substrate in presence of ATP by pyruvate kinase/lactate dehydrogenase enzyme coupled assay
[8] = tested on: Escherichia coli; assay: Substrate activity at N-terminal His6-tagged Escherichia coli PanK1 expressed in Escherichia coli BL21(DE3) cells assessed as ratio of Kcat to Km in presence of ATP/NADH by pyruvate kinase/lactate dehydrogenase enzyme coupled assay
[9] = tested on: Escherichia coli; assay: Inhibition of N-terminal His6-tagged Escherichia coli PanK1 expressed in Escherichia coli BL21(DE3) cells at >= 100 uM using pantothenate as substrate in presence of ATP by pyruvate kinase/lactate dehydrogenase enzyme coupled assay
[10] = target: T1, Type II pantothenate kinase (Staphylococcus aureus (strain MSSA476)); assay: Substrate activity at N-terminal His6-tagged Staphylococcus aureus PanK2 expressed in Escherichia coli BL21(DE3) cells assessed as ratio of Kcat to Km in presence of ATP/NADH by pyruvate kinase/lactate dehydrogenase enzyme coupled assay
[11] = tested on: Escherichia coli; assay: Substrate activity at N-terminal His6-tagged Escherichia coli PanK1 expressed in Escherichia coli BL21(DE3) cells assessed as Km in presence of ATP/NADH by pyruvate kinase/lactate dehydrogenase enzyme coupled assay
[12] = tested on: Escherichia coli; assay: Inhibition of N-terminal His6-tagged Escherichia coli PanK1 expressed in Escherichia coli BL21(DE3) cells at 200 uM using pantothenate as substrate in presence of ATP by pyruvate kinase/lactate dehydrogenase enzyme coupled assay
[13] = target: T2, Type III pantothenate kinase (Pseudomonas aeruginosa (strain ATCC 15692 / DSM 22644 / CIP 104116 /JCM 14847 / LMG 12228 / 1C / PRS 101 / PAO1)); assay: Inhibition of Pseudomonas aeruginosa PanK3 expressed in Escherichia coli BL21 Rosetta(DE3) cells at 200 uM using pantothenate as substrate in presence of ATP by pyruvate kinase/lactate dehydrogenase enzyme coupled assay
[14] = target: T2, Type III pantothenate kinase (Pseudomonas aeruginosa (strain ATCC 15692 / DSM 22644 / CIP 104116 /JCM 14847 / LMG 12228 / 1C / PRS 101 / PAO1)); assay: Substrate activity at Pseudomonas aeruginosa PanK3 expressed in Escherichia coli BL21(DE3) cells assessed as ratio of Kcat to Km in presence of ATP/NADH by pyruvate kinase/lactate dehydrogenase enzyme coupled assay
[15] = target: T1, Type II pantothenate kinase (Staphylococcus aureus (strain MSSA476)); assay: Substrate activity at N-terminal His6-tagged Staphylococcus aureus PanK2 expressed in Escherichia coli BL21(DE3) cells in presence of ATP/NADH by pyruvate kinase/lactate dehydrogenase enzyme coupled assay
[16] = target: T2, Type III pantothenate kinase (Pseudomonas aeruginosa (strain ATCC 15692 / DSM 22644 / CIP 104116 /JCM 14847 / LMG 12228 / 1C / PRS 101 / PAO1)); assay: Substrate activity at Pseudomonas aeruginosa PanK3 expressed in Escherichia coli BL21(DE3) cells in presence of ATP/NADH by pyruvate kinase/lactate dehydrogenase enzyme coupled assay
[17] = tested on: Escherichia coli; assay: Substrate activity at N-terminal His6-tagged Escherichia coli PanK1 expressed in Escherichia coli BL21(DE3) cells in presence of ATP/NADH by pyruvate kinase/lactate dehydrogenase enzyme coupled assay

SMILES	growth inhibition (GI) [1]	inhibition [2]	growth inhibition (GI) [3]	growth inhibition (GI) [4]	inhibition [5]	kcat [6] [s⁻¹]	inhibition [7]	Ratio [8] [mM⁻¹ s⁻¹]	inhibition [9]	Ratio [10] [mM⁻¹ s⁻¹]	Km [11] [µM]	inhibition [12]	inhibition [13]	Ratio [14] [mM⁻¹ s⁻¹]	Activity [15]	Activity [16]	Activity [17]
CC(C)(C(=O)O)[C@@H](O)C(=O)NCCC(=O)O	inactive	Active	inactive	inactive													
CCCCCc1cn(CCNC(=O)[C@H](O)C(C)(C)CO)nn1	inactive		inactive	inactive	inactive	1.11	inactive	53	inactive	97	21						
CCCCCNCC(C)(C)[C@@H](O)C(=O)NCCC(=O)O	inactive		inactive	inactive								Active					
CCCCCn1cc(CCNC(=O)[C@H](O)C(C)(C)CO)nn1	inactive		inactive	inactive	inactive	0.72	inactive	22	inactive	107	33						
CNCC(C)(C)[C@@H](O)C(=O)NCCC(=O)O	inactive		inactive	inactive								Active	Active				
CC(C)(CO)[C@@H](O)C(=O)NCCC(=O)O						1.29		76		115	17			20			
CC(=O)CC(=O)NCC(C)(C)[C@@H](O)C(=O)NCCC(=O)O	inactive	Active	inactive	inactive								Active	Active				
CCCCCn1cc(CNC(=O)[C@H](O)C(C)(C)CO)nn1	inactive		inactive	inactive	inactive		inactive		inactive	54							
COCC(C)(C)[C@@H](OC)C(=O)NCCC(=O)O	inactive		inactive	inactive													
COC(=O)CNC(=O)[C@H](O)C(C)(C)CO	inactive		inactive	inactive	inactive	0.91	inactive	5.8	inactive	115	156						
CCCCn1cc(CCNC(=O)[C@H](O)C(C)(C)CO)nn1	inactive		inactive	inactive	inactive	1.08	inactive	22	inactive	115	50						
CO[C@@H](C(=O)NCCC(=O)O)C(C)(C)CO	inactive		inactive	inactive	inactive	0.49	inactive	31	inactive		16						
CC(C)(CNCCCO)[C@@H](O)C(=O)NCCC(=O)O	inactive		inactive	inactive	inactive		inactive		inactive						inactive	inactive	inactive
O=C(O)CCNC(=O)[C@H](O)CCO	inactive		inactive	inactive	inactive		inactive		inactive					5			
CCCCCCCNCC(C)(C)[C@@H](O)C(=O)NCCC(=O)O	inactive		inactive	inactive													
COCC(C)(C)[C@@H](O)C(=O)NCCC(=O)O	inactive		inactive	inactive								Active	Active				
COC(=O)CCNC(=O)[C@H](O)C(C)(C)CO	inactive		inactive	inactive	inactive	0.8	inactive	2.7	inactive	8.3	292						
CCCc1cn(CCCNC(=O)[C@H](O)C(C)(C)CO)nn1	inactive		inactive	inactive	inactive		inactive		inactive	21							
CCCNCC(C)(C)[C@@H](O)C(=O)NCCC(=O)O	inactive		inactive	inactive													
COC(=O)CCCNC(=O)[C@H](O)C(C)(C)CO	inactive		inactive	inactive	inactive		inactive		inactive	7.1							
CC(C)(CNCCc1ccccc1)[C@@H](O)C(=O)NCCC(=O)O	inactive		inactive	inactive								Active					
CC(C)(CO)[C@@H](O)C(=O)NCc1cn(CCc2ccccc2)nn1	inactive		inactive	inactive	inactive	1.09	inactive	44	inactive	37	25						
CCCCCNC(=O)CCNC(=O)[C@H](O)C(C)(C)CO										> 290							
CC(C)(CO)[C@@H](O)C(=O)NCCCC(=O)O	inactive		inactive	inactive	inactive		inactive		inactive	57				1.4			
CC(C)(CO)[C@@H](O)C(=O)NCC(=O)O	inactive		inactive	inactive	inactive	1.59	inactive	26	inactive		62						
CC(=O)CC(=O)OCC(C)(C)[C@@H](O)C(=O)NCCC(=O)O	inactive		inactive	inactive													
